{"source": "ChEMBL document CHEMBL1201862", "about": "“PubChem BioAssay data set” (2004)", "key": {"[1]": {"experiment": "Luminescence Cell-Based/Microorganism Confirmation at Dose of Inhibitors of Trypanosoma cruzi Infection. [Related pubchem assays: 1885, 1968 ]", "assay_type": "functional"}, "[2]": {"experiment": "Trypanosoma cruzi growth suppression in host cells – NIH3T3 host cells, beta-gal luminescence, confirmation (AID 2044);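 also: intracellular parasites grown in NIH/3T3 mouse fibroblasts as host cells; luminescent beta-galactosidase reporter signal from transgenic T. cruzi replicating inside host cells; inhibitors lower the luminescence signal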", "assay_type": "functional, cell-based"}, "[3]": {"experiment": "NIH3T3 cell viability loss – ATP luminescence, mouse fibroblasts, counter-screen, dose response (AID 2010);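 also: cells exposed to compound for about 90 hours before reading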", "assay_type": "functional, cell-based"}, "[4]": {"experiment": "Luminescence Cell-Based Secondary HTS screen to identify cytotoxic compounds of NIH3T3 cells. [Related pubchem assays: 1885, 1968 ]", "assay_type": "functional"}, "[5]": {"experiment": "T. cruzi infection blockers in NIH3T3 cells – beta-gal luminescence, NIH3T3 host cells, confirmation (AID 2630)", "assay_type": "functional, cell-based", "conditions": "Mus musculus"}, "CAAX prenyl protease 1": {"target": "CAAX prenyl protease 1 (Saccharomyces cerevisiae S288c, UniProt P47154)", "sequence (P47154 whole entry)": "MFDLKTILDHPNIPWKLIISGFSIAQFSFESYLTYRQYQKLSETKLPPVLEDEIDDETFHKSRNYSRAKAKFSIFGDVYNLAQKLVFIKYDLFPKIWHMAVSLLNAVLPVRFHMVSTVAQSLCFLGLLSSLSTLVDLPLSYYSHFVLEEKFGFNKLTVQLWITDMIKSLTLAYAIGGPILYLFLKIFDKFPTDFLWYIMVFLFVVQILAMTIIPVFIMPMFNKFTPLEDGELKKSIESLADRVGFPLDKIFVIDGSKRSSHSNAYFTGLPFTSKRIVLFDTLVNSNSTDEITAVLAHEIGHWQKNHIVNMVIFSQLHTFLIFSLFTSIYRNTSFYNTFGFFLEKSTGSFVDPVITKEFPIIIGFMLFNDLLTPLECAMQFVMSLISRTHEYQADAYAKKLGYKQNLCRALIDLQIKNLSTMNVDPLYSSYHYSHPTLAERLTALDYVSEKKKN", "experiment": "yeast CAAX protease Ste24 inhibition – biochemical, S. cerevisiae, plate reader, cherry-pick, dose response (AID 488815)"}, "CAAX prenyl protease 2": {"target": "T1, CAAX prenyl protease 2 (Homo sapiens, UniProt Q9Y256)", "T1 sequence (Q9Y256 whole entry)": "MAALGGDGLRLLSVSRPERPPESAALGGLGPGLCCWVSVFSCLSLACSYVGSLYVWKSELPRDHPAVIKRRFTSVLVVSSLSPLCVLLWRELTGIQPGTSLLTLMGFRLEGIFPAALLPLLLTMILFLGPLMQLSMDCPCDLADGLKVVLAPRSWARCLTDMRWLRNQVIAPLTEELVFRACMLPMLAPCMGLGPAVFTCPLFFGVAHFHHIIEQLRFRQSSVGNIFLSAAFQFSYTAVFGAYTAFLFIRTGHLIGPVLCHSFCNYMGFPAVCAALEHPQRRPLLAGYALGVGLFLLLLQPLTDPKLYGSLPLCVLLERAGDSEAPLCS", "experiment": "inhibition of Ras-converting CAAX protease Rce1 – biochemical, yeast membranes, quenched-peptide fluorescence, cherry-pick, dose response (AID 588849)"}, "[6]": {"experiment": "restored growth of temperature-sensitive Burl-1 yeast – whole organism, S. cerevisiae, Burl-1 ts mutant, luminescence, counter-screen for SUMOylation pathway inhibitor project, dose response (AID 463199)", "assay_type": "functional"}, "Hexokinase HKDC1": {"target": "Hexokinase HKDC1 (Homo sapiens, UniProt Q2TB90)", "sequence (Q2TB90 whole entry)": "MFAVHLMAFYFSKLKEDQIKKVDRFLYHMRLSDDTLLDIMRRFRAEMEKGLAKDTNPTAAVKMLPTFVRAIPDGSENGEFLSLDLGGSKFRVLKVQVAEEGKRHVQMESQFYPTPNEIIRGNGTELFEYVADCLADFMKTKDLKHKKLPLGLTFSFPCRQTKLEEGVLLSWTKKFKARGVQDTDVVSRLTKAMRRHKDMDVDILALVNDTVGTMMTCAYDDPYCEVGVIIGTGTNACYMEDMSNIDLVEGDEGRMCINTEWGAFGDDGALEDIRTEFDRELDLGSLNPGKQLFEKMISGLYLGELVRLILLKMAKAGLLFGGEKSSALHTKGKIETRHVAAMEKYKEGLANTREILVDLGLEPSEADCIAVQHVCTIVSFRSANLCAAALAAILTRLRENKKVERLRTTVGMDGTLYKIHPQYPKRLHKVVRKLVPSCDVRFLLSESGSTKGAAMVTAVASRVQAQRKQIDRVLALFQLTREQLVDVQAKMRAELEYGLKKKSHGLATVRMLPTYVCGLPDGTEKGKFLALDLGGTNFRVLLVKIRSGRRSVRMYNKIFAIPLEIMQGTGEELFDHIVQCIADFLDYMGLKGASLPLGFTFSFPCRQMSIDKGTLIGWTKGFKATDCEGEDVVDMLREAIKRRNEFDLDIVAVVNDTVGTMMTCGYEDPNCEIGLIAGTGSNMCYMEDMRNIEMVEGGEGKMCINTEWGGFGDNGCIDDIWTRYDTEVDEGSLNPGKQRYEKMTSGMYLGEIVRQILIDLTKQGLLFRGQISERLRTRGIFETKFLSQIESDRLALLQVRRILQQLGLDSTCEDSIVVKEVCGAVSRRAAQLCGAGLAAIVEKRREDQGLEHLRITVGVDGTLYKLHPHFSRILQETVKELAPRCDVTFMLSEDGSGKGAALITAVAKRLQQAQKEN", "experiment": "inhibition of HKDC1 glucose phosphorylation – biochemical, W721R variant, dose response (AID 504729)", "assay_type": "functional"}, "SUMO E1/E2": {"target": "SUMO E1/E2 (Homo sapiens, UniProt P63279+Q9UBE0+Q9UBT2)", "sequence (Q9UBE0 whole entry)": "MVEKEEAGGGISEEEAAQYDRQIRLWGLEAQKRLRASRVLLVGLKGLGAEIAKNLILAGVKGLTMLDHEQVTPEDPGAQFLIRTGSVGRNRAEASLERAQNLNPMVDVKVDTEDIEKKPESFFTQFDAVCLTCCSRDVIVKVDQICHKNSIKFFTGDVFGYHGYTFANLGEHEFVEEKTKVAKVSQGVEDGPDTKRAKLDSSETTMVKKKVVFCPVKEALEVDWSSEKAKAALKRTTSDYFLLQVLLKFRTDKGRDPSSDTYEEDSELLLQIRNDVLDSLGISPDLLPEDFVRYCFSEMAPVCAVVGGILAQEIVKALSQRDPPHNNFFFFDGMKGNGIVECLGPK", "sequence (Q9UBT2 whole entry)": "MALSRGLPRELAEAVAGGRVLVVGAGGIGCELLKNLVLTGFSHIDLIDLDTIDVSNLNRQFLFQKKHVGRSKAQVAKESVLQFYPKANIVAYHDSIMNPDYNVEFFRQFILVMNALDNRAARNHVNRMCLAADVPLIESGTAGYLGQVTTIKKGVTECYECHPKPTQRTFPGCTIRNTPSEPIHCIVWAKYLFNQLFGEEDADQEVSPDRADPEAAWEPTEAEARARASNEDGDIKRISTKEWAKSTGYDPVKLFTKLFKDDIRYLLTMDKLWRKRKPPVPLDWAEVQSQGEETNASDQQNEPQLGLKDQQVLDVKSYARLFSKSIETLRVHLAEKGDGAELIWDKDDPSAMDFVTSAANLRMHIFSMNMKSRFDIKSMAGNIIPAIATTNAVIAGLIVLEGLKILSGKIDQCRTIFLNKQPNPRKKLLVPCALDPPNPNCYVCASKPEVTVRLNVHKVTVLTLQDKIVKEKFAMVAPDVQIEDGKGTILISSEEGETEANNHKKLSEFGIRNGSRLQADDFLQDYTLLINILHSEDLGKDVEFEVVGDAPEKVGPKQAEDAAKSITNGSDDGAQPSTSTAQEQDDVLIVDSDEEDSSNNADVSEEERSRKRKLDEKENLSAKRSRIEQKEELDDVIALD", "sequence (P63279 whole entry)": "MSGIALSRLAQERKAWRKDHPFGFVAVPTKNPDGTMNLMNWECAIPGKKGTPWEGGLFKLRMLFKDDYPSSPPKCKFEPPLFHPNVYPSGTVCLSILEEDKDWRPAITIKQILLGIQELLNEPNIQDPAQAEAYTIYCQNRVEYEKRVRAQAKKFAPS", "experiment": "SAR analysis of SUMOylation using HTRF in an in-Vitro dose response assay. [Related pubchem assays (depositor defined):AID2006, AID2011, AID2018, AID2069, AID2658]", "assay_type": "functional"}, "Protein RecA": {"target": "T2, Protein RecA (Mycobacterium tuberculosis, UniProt P9WHJ3)", "T2 sequence (P9WHJ3 whole entry)": "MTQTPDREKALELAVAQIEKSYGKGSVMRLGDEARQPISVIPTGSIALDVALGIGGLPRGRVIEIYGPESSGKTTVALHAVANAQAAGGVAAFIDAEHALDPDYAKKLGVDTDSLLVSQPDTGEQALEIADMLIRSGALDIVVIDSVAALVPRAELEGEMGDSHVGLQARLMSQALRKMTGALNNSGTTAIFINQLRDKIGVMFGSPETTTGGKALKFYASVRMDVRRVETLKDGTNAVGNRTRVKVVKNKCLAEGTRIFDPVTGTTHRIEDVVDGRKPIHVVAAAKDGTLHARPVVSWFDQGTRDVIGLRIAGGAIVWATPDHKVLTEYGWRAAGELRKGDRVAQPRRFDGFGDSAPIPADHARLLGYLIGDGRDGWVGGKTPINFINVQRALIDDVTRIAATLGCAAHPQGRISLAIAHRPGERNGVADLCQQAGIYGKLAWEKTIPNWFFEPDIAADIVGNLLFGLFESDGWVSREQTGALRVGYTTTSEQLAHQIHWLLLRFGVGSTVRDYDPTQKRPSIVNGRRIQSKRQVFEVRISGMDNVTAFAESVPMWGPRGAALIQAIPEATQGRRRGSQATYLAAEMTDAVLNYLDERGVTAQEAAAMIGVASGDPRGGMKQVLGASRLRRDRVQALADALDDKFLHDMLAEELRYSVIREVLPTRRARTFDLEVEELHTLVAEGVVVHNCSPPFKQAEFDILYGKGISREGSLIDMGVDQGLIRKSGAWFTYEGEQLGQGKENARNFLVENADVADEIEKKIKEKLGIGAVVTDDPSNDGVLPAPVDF", "experiment": "Fluorescence Cell-Free Homogeneous Dose Retest to Identify Inhibitors of RecA-Intein Splicing Activity. [Related pubchem assays (depositor defined):AID2097, AID2223, AID489010, AID492950]", "assay_type": "functional"}, "SUMO-activating enzyme [7]": {"target": "T3, SUMO-activating enzyme (Homo sapiens, UniProt Q9UBT2)", "T3 sequence (Q9UBE0 whole entry)": "as the sequence (Q9UBE0 whole entry) above", "T3 sequence (Q9UBT2 whole entry)": "as the sequence (Q9UBT2 whole entry) above", "experiment": "blockers of UBC9-mediated SUMO conjugation – biochemical, AlphaScreen, SUMOylation inhibitor project, confirmation (AID 2018)", "assay_type": "functional"}, "SUMO-activating enzyme [8]": {"target": "T3, SUMO-activating enzyme", "experiment": "blockers of SAE1/SAE2–UBC9 SUMO transfer – biochemical, HTRF, uHTS, primary screen (AID 2006)", "assay_type": "protein-complex assay"}, "[9]": {"target": "Eukaryotic translation initiation factor 4E (Mus musculus, UniProt P63073)", "sequence (P63073 whole entry)": "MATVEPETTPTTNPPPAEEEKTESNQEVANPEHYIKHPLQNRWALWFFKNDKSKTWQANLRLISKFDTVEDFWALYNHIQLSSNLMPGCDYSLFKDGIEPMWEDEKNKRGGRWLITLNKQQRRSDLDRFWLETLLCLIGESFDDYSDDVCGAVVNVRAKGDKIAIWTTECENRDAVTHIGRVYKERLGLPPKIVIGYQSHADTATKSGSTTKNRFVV", "experiment": "blockers of eIF4G binding by eIF4E – biochemical, TR-FRET, dose response (AID 855);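 also: potency for disrupting eIF4E binding to eIF4GI seen as loss of FRET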", "assay_type": "functional"}, "[10]": {"target": "T4, Replicative DNA helicase DnaB (Mycobacterium tuberculosis, UniProt P9WMR3)", "T4 sequence (P9WMR3 whole entry)": "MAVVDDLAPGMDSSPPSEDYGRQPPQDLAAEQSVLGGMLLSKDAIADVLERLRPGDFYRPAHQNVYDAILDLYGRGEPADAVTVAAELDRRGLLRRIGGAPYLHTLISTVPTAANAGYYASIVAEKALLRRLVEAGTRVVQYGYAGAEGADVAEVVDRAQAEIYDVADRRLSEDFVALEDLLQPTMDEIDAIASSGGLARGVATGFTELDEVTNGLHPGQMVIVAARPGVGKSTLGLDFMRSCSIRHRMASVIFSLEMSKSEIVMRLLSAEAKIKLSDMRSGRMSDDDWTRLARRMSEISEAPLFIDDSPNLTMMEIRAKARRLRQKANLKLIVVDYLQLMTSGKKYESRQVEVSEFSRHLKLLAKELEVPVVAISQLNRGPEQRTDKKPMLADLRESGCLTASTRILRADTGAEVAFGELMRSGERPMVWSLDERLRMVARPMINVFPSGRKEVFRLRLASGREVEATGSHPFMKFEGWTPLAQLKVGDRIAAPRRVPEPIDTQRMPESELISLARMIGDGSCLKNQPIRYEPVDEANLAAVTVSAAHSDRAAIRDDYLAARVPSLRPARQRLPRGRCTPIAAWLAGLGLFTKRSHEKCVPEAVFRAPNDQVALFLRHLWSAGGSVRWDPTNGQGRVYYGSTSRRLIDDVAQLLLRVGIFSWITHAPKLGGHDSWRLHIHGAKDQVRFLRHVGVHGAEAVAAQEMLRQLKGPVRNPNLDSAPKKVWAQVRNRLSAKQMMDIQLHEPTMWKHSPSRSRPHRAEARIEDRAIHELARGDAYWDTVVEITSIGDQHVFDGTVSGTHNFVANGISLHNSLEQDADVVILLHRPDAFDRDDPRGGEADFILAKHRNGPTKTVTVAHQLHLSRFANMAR", "experiment": "DnaB intein splicing inhibitors, dose response, biochemical, cell-free fluorescence (AID 449749)", "assay_type": "functional"}, "[11]": {"target": "T5, Mannose-6-phosphate isomerase (Homo sapiens, UniProt P34949)", "T5 sequence (P34949 whole entry)": "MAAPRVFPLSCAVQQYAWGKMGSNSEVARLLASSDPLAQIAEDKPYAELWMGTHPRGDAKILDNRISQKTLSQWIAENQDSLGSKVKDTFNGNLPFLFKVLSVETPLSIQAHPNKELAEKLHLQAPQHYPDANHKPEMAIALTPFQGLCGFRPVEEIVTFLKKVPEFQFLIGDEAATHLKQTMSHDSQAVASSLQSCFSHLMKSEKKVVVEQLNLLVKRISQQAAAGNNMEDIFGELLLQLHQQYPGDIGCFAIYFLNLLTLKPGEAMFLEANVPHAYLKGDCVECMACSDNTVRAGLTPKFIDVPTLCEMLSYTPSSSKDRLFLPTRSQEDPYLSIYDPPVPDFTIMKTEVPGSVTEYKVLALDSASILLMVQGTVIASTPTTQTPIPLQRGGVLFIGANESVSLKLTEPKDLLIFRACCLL", "experiment": "phosphomannose isomerase inhibition – biochemical, fluorescence intensity, confirmation (AID 1535)"}, "Phosphomannomutase 2": {"target": "Phosphomannomutase 2 (Homo sapiens, UniProt O15305)", "sequence (O15305 whole entry)": "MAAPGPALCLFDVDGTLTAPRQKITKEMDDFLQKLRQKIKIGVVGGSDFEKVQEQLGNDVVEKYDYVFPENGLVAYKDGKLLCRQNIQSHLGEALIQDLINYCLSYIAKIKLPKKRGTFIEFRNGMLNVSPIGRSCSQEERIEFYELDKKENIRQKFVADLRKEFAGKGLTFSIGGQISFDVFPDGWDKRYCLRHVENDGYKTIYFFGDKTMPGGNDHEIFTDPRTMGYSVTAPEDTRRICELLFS", "experiment": "Counter screen SAR assay for PMM2 inhibitors via a fluorescence intensity assay. [Related pubchem assays (depositor defined):AID1545, AID1574]"}, "[12]": {"experiment": "Fluorescence Cell-Based Dose Response to Identify Inhibitors of Thrombin Receptor-Activating Peptide SFLLRN-Mediated P-Selectin Induction on Platelets. [Related pubchem assays: 1663 (Primary HTS), 1889 (retest at dose ), 1891 (counterscreen), 1678 (Project Summary)]", "assay_type": "functional"}, "[13]": {"target": "Luciferin 4-monooxygenase (Photinus pyralis, UniProt P08659)", "sequence (P08659 whole entry)": "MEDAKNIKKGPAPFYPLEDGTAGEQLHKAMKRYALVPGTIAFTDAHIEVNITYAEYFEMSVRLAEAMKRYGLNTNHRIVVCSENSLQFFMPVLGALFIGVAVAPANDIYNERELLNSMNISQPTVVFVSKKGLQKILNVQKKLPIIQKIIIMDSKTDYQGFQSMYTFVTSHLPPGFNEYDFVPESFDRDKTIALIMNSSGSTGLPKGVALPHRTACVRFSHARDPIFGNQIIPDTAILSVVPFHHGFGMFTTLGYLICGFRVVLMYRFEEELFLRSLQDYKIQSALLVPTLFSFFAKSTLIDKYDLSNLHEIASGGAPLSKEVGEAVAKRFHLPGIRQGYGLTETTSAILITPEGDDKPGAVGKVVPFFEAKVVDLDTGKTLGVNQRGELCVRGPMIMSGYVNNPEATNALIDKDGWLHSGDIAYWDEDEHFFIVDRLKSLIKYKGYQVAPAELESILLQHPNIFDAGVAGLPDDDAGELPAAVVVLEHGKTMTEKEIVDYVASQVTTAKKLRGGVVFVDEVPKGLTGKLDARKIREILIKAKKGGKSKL", "experiment": "inhibition of purified Photinus pyralis luciferase – biochemical, luminescence, dose response (AID 1891)"}, "[14]": {"target": "Lysine-specific demethylase 4C (Homo sapiens, UniProt Q9H3R0)", "sequence (Q9H3R0 whole entry)": "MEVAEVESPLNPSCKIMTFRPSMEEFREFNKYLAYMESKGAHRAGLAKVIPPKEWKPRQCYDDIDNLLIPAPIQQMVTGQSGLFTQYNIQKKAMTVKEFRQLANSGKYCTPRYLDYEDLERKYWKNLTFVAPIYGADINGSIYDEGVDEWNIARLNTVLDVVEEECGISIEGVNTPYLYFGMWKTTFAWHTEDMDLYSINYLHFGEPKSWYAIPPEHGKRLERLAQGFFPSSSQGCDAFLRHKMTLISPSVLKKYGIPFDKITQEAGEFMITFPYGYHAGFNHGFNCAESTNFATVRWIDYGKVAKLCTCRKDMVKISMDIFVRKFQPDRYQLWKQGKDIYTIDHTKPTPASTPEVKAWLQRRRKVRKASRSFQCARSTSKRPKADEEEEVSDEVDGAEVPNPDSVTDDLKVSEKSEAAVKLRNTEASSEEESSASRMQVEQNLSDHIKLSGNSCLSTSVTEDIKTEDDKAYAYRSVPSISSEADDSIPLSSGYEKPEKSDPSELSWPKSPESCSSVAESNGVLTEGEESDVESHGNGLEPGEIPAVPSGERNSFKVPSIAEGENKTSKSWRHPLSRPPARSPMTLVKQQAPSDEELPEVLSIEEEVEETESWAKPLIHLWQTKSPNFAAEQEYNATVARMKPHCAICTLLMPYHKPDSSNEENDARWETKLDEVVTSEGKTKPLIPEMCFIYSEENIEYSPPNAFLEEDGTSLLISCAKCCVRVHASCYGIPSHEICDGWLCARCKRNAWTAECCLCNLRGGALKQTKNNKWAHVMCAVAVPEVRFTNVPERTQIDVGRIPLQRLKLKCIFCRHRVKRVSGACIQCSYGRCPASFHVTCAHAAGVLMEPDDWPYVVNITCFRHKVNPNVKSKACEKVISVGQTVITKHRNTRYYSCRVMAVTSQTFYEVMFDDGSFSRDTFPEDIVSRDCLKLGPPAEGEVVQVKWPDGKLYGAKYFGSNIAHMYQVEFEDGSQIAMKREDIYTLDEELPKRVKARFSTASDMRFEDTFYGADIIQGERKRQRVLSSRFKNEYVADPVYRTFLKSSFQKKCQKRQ", "experiment": "inhibition of JMJD2C H3K9me3 demethylation – biochemical, DELFIA europium, cherry-picked samples, dose response (AID 488835)", "assay_type": "functional"}, "[15]": {"experiment": "Luminescence Cell-Based Dose Confirmation HTS to Identify Inhibitors of Platelet Dense Granule Release. [Related pubchem assays: 1663 (Primary HTS), 1678 (Summary of Project)]", "assay_type": "functional"}}, "note": "Calls of active or inactive are those of the source."}
{"smiles": "CC(C)Oc1cccc(C(=O)C2CCCN(Cc3cnc(N4CCCC4)s3)C2)c1", "note": "(stereo unspecified)", "values": [{"measurement": "EC50", "setting": "[1]", "value": "0.606 µM (active)"}, {"measurement": "EC50", "setting": "[2]", "value": "0.14 µM (active)"}, {"measurement": "EC50", "setting": "[3]", "value": "> 60 µM (not active)"}, {"measurement": "EC50", "setting": "[4]", "value": "63.8 µM (active)"}, {"measurement": "EC50", "setting": "[5]", "value": "0.607 µM (active)"}]}
{"smiles": "CCOc1cccc(-c2nn(-c3ccccc3)cc2/C=C(/C#N)C(=O)NCCCn2ccnc2)c1", "values": [{"measurement": "AC50", "setting": "CAAX prenyl protease 1", "value": "7.93 µM (active)"}, {"measurement": "AC50", "setting": "CAAX prenyl protease 2", "value": "22.3 µM (active)"}]}
{"smiles": "O=C1CC(c2ccccc2)C(=O)N1c1cccc(O)c1", "note": "(stereo unspecified)", "values": [{"measurement": "AC50", "setting": "[6]", "value": "53.6 µM (active)"}]}
{"smiles": "O=C(/C=C/c1cccs1)Nc1scc(-c2ccccc2)c1C(=O)O", "values": [{"measurement": "IC50", "setting": "Hexokinase HKDC1", "value": "7 µM (active)"}, {"measurement": "IC50", "setting": "SUMO E1/E2", "value": "6.11 µM (active)"}, {"measurement": "EC50", "setting": "Protein RecA", "value": "10.6 µM (active)"}, {"measurement": "IC50", "setting": "SUMO-activating enzyme [7]", "value": "2.74 µM (active)"}, {"measurement": "IC50", "setting": "SUMO-activating enzyme [8]", "value": "9.84 µM (active)"}, {"measurement": "IC50", "setting": "[9]", "value": "5.76 µM (active)"}, {"measurement": "AC50", "setting": "[10]", "value": "23.3 µM (active)"}]}
{"smiles": "Cc1cccc(/N=c2\\ssnc2Cl)c1", "values": [{"measurement": "IC50", "setting": "[11]", "value": "> 100 µM (inactive)"}, {"measurement": "IC50", "setting": "Phosphomannomutase 2", "value": "> 100 µM (inactive)"}]}
{"smiles": "COc1ccc(/C=N/N(C)c2cc(=O)n(C)c(=O)[nH]2)cc1OC", "values": [{"measurement": "EC50", "setting": "[12]", "value": "< 1 µM (active)"}, {"measurement": "EC50", "setting": "[13]", "value": "> 112 µM (not active)"}, {"measurement": "AC50", "setting": "[14]", "value": "17.8 µM (active)"}, {"measurement": "EC50", "setting": "[15]", "value": "0.693 µM (active)"}]}
